According to ChEMBL document CHEMBL5338792, “Degradation of Rat Sarcoma Proteins Targeting the Post-Translational Prenyl Modifications via Cascade Azidation/Fluorination and Click Reaction” (J Med Chem, 2023):
Active and inactive are the calls of the source. The calls are words filed in the database; no cut-off is given here.

Tests used:
HeLa [1] = experiment: SarcPROTAC activity at VHL/RAS in TMSN3/Selectfluor-treated human HeLa cells at 50 uM in presence of CuBr/TBTA incubated for 24 hrs by Western blot analysis; type: cell-based
A549 [2] = experiment: SarcPROTAC activity at VHL/RAS in TMSN3/Selectfluor-treated human A549 cells at 50 uM in presence of CuBr/TBTA incubated for 24 hrs by Western blot analysis; type: cell-based
[3] = target: T1, Protein cereblon/GTPase HRas/GTPase NRas/GTPase KRas (Homo sapiens) (UniProt P01112+P01111+P01116+Q96SW2); experiment: SacrPROTAC activity at E3 ubiquitin ligase/RAS in TMSN3/Selectfluor-treated human HeLa cells assessed as induction of RAS degradation at 200 uM measured after 24 hrs in presence of propargyl pomalidomide by Western blot analysis; type: cell-based
T1 sequence (P01111 whole entry, looked up): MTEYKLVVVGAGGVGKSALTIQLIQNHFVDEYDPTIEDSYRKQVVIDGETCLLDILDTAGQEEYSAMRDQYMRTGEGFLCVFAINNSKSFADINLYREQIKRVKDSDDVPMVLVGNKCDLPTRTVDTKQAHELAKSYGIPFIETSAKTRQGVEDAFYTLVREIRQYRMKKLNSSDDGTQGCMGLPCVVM
T1 sequence (P01112 whole entry, looked up): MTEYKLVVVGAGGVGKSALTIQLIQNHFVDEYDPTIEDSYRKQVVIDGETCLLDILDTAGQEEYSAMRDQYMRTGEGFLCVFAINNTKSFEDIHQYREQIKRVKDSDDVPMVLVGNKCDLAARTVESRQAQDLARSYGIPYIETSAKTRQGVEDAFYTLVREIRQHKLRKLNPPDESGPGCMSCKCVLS
T1 sequence (P01116 whole entry, looked up): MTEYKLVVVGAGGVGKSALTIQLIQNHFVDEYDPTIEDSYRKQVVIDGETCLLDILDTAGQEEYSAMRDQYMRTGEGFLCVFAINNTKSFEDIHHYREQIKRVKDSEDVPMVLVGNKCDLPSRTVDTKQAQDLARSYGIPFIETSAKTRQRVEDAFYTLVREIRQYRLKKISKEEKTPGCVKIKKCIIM
T1 sequence (Q96SW2 whole entry, looked up): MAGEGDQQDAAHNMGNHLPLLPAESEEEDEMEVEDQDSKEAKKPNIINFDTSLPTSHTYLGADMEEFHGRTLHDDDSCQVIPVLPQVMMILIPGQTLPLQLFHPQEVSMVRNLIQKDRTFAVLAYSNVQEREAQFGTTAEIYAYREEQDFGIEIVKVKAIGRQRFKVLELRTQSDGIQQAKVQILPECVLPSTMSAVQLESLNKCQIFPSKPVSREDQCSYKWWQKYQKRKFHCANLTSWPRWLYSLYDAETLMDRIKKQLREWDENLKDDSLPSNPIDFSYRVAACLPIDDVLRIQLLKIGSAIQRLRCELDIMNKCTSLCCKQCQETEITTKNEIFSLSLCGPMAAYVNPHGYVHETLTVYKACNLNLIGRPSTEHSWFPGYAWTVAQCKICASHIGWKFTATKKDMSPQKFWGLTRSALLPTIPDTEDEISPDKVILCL

[4] = target: T1, Protein cereblon/GTPase HRas/GTPase NRas/GTPase KRas (Homo sapiens); experiment: SacrPROTAC activity at E3 ubiquitin ligase/RAS in TMSN3/Selectfluor-treated human HeLa cells assessed as induction of RAS degradation incubated for 24 hrs by Western blot analysis; type: cell-based; conditions: dose <= 200.0 µM
[5] = target: T1, Protein cereblon/GTPase HRas/GTPase NRas/GTPase KRas (Homo sapiens); experiment: SacrPROTAC activity at E3 ubiquitin ligase/RAS in TMSN3/Selectfluor-treated human HeLa cells assessed as induction of RAS degradation at 200 uM measured after 24 hrs by Western blot analysis; type: cell-based
[6] = target: T1, Protein cereblon/GTPase HRas/GTPase NRas/GTPase KRas (Homo sapiens); experiment: SacrPROTAC activity at E3 ubiquitin ligase/RAS in TMSN3/Selectfluor-treated human HeLa cells assessed as induction of RAS degradation at 75 uM incubated for >48 hrs by Western blot analysis; type: cell-based
[7] = target: T1, Protein cereblon/GTPase HRas/GTPase NRas/GTPase KRas (Homo sapiens); experiment: SacrPROTAC activity at E3 ubiquitin ligase/RAS in TMSN3/Selectfluor-treated human HeLa cells assessed as induction of RAS degradation at 200 uM measured after 24 hrs in presence of PYR-41 by Western blot analysis; type: cell-based
[8] = target: T1, Protein cereblon/GTPase HRas/GTPase NRas/GTPase KRas (Homo sapiens); experiment: SacrPROTAC activity at E3 ubiquitin ligase/RAS in TMSN3/Selectfluor-treated human HeLa cells assessed as induction of RAS degradation at 200 uM measured after 24 hrs in presence of methyl propargyl pomalidomide by Western blot analysis; type: cell-based
HeLa [9] = experiment: Downregulation of HRAS in TMSN3/Selectfluor-treated human HeLa cells at 50 to 200 uM incubated for 24 hrs in presence of CuBr/TBTA by TMT mass spectrometric analysis; type: functional, cell-based; conditions: dose 50-200 µM
HeLa [10] = experiment: Upregulation of GSTP1 in TMSN3/Selectfluor-treated human HeLa cells at 50 to 200 uM incubated for 24 hrs in presence of CuBr/TBTA by TMT mass spectrometric analysis; type: functional, cell-based; conditions: dose 50-200 µM
A549 [11] = experiment: SacrPROTAC activity at E3 ubiquitin ligase/RAS in TMSN3/Selectfluor-treated human A549 cells assessed as induction of RAS degradation at 200 uM measured for 48 hrs by Western blot analysis; type: functional, cell-based
HT-29 [12] = experiment: SacrPROTAC activity at E3 ubiquitin ligase/RAS in TMSN3/Selectfluor-treated human HT-29 cells assessed as induction of RAS degradation at 100 to 200 uM measured after 24 hrs by Western blot analysis; type: functional, cell-based; conditions: dose 100-200 µM
MCF7 [13] = experiment: SacrPROTAC activity at E3 ubiquitin ligase/RAS in TMSN3/Selectfluor-treated human MCF7 cells assessed as induction of RAS degradation at 200 uM measured after 24 hrs by Western blot analysis; type: functional, cell-based
HT-29 [14] = experiment: SacrPROTAC activity at E3 ubiquitin ligase/RAS in TMSN3/Selectfluor-treated human HT-29 cells assessed as induction of RAS degradation at 100 to 200 uM measured for 12 to 24 hrs by Western blot analysis; type: functional, cell-based; conditions: dose 100-200 µM, time 12-24 hrs
MCF7 [15] = experiment: SacrPROTAC activity at E3 ubiquitin ligase/RAS in TMSN3/Selectfluor-treated human MCF7 cells assessed as induction of RAS degradation at 200 uM measured upto 48 hrs by Western blot analysis; type: functional, cell-based
HT-29 [16] = experiment: Inhibition of […] in TMSN3/Selectfluor-treated human HT-29 cells upto 200 uM in presence of CuBr/TBTA by CCK8 assay; type: functional, cell-based
HeLa [17] = experiment: Induction of apoptosis in TMSN3/Selectfluor-treated human HeLa cells at 200 uM in presence of CuBr/TBTA incubated for 24 hrs by annexin V-FITC/PI staining based flow cytometry; type: functional, cell-based

## C#CCCOC(=O)N[C@H](C(=O)N1C[C@H](O)C[C@H]1C(=O)NCc1ccc(-c2scnc2C)cc1)C(C)(C)C
HeLa [1]
  Activity: Active
A549 [2]
  Activity: Active

## C#CCNCC(=O)Nc1cccc2c1C(=O)N(C1CCC(=O)N(C)C1=O)C2=O (configuration not stated)
[3]
  Activity: inactive

## C#CCNCC(=O)Nc1cccc2c1C(=O)N(C1CCC(=O)NC1=O)C2=O (configuration not stated)
[4]
  Activity: Dose-Dependent Effect
[5]
  Activity: Active
[6]
  Activity: Active
[7]
  Activity: inactive
[8]
  Activity: Active
HeLa [9]
  Activity: Active
HeLa [10]
  Activity: Active
A549 [11]
  Activity: Active
HT-29 [12]
  Activity: Active
MCF7 [13]
  Activity: Active
HT-29 [14]
  Activity: Active
MCF7 [15]
  Activity: inactive
HT-29 [16]
  inhibition: Active
HeLa [17]
  Activity: Active
